The text below walks through data of EP2017264A1, “Substituted phenyl propargyl compounds, method for their manufacture and their use as herbicides and plant growth regulators” (BAYER CROPSCIENCE AG, priority 2007, dated 2009).

For orientation: chromatographic logP means a lipophilicity value derived from retention on a column. A lower chromatographic logP goes with lower lipophilicity.

This series can be described thus: physchem.

Procedure: "LogP" = Verteilungskoeffizient in einem Zweiphasengemisch aus n-Octanol und Wasser.
Die log P-Daten wurden in Übereinstimmung mit der EEC Direktive 79/831, Anlage V.A8 (Annex V.A8) mittels HPLC (High Performance Liquid Chromatography) auf einer Umkehrphase-Säule (reversed-phase column) (C18) mit folgenden Methoden bestimmt: Temperatur: 40°C; Mobile Phase: 0,1 % bzw. 0,06 %ige wässrige Ameisensäure oder 0,1 % wässriger Phosphorsäure und Acetonitril; linearer Gradient von 10% Acetonitril bis 90% bzw. 95 % Acetonitril. Die Kalibrierung wurde ausgeführt mit Hilfe unverzweigter Alkan-2-one (bestehend aus 3 bis 13 bzw.16 Kohlenstoff-Atomen) mit bekannten IogP-Werten (Bestimmung der IogP-Werte über die Retentionszeiten mittels linearer Interpolation zwischen zwei nachfolgenden Alkanonen).

The compound `COc1ncc(C=NOCC#Cc2cccc(CC#N)c2)cc1F` [Beispiel 5.044] had a chromatographic logP of 3.24.

On to `CCC(=NOCC#Cc1cccc(SC)c1)c1ccc(C)cc1` [Beispiel 1.409], for which the chromatographic logP was found to be 5.36. Regarding `CC[S+]([O-])c1cc(C#CCON=Cc2ccccc2OC)ccc1OC` (stereo not shown) [Beispiel 1.401], the chromatographic logP worked out at 3.07. The compound `COc1ccc(C=NOCC#Cc2cccc(SC(C)C)c2)cn1` [Beispiel 5.136] showed a chromatographic logP of 4.8. For `N#CCc1cccc(C#CCON=Cc2ccc(OCC(F)(F)F)nc2OCC(F)(F)F)c1` [Beispiel 5.192] the value was 4.03; for `CC(=NOCC#Cc1cccc([S+](C)[O-])c1)c1cccc(C)n1` (stereo not shown) [Beispiel 3.092], 1.75; for `CCSc1cccc(C#CCON=Cc2ccc(OC)nc2)c1` [Beispiel 5.127], 4.34. For `COc1ccccc1-c1ccn(CC#Cc2cccc(SC)c2)n1` [Beispiel 6.050] the value was 3.43; for `CSc1cccc(C#CCON=Cc2ccc(C3CCCC3)nc2)c1` [Beispiel 5.194], 5.44; for `CSc1cccc(C#CCON=Cc2ccc(OCC(F)(F)F)nc2OCC(F)(F)F)c1` [Beispiel 5.191], 5.08. `COc1ccccc1C=NOCC#Cc1cccc([S+]([O-])C(F)(F)F)c1` (stereo not shown) [Beispiel 1.380] came in with a chromatographic logP of 3.88. As for `COc1cc(F)ccc1C=NOCC#Cc1ccc(F)c(F)c1SC` [Beispiel 1.447], the chromatographic logP was determined as 4.58. `COc1ccccc1C=NOCC#Cc1cccc(OC(F)(F)F)c1` [Beispiel 1.428]: the chromatographic logP was 4.72. The compound `CSc1nccnc1C=NOCC#Cc1cccc(CC#N)c1` [Beispiel 4.080] had a chromatographic logP of 2.99.

Take `COc1cc(F)ccc1C=NOCC#Cc1ccc(C#N)c(SC)c1` [Beispiel 1.395]: the chromatographic logP amounted to 3.97. Consider `CC[S+]([O-])c1cc(C#CCON=Cc2ccc(F)cc2OC)ccc1C` (stereo not shown) [Beispiel 1.427], for which the chromatographic logP was found to be 3.15.

The compound `CCSc1cc(C#CCON=Cc2ccccc2OC)ccc1C` [Beispiel 1.424] showed a chromatographic logP of 5.33.

`COc1ccccc1C=NOCC#Cc1cc(C)c(F)c([S+](C)[O-])c1` (stereo not shown) [Beispiel 1.444]: the chromatographic logP came to 3.32. Consider `COc1ncc(Cl)nc1C=NOCC#Cc1cccc(CC#N)c1` [Beispiel 4.094], for which the chromatographic logP came out at 3.09. Consider `CC[S+]([O-])c1cc(C#CCON=Cc2ccccc2OC)ccc1C` (stereo not shown) [Beispiel 1.426], for which the chromatographic logP was determined as 3.05. Next, `COc1ccc(C=NOCC#Cc2cccc(CC#N)c2)c(OC)c1` [Beispiel 1.387]: 3.22; `CCC(=NOCC#Cc1cccc(C(F)(F)F)c1)c1ccccc1` [Beispiel 1.404]: 5.13; `COc1ccccc1C=NOCC#Cc1ccccc1SC` [Beispiel 1.386]: 4.23.

The compound `COc1cc(F)ccc1C=NOCC#Cc1ccc(F)c([S+](C)[O-])c1F` (stereo not shown) [Beispiel 1.438] showed a chromatographic logP of 2.75. `COc1ccc(C=NOCC#Cc2ccccc2[S+](C)[O-])cn1` (stereo not shown) [Beispiel 5.145] had a chromatographic logP of 2.19. For `COc1ccc(C=NOCC#Cc2ccc(F)c(F)c2)cn1` [Beispiel 5.141], the chromatographic logP is 3.83. For `CCC(=NOCC#Cc1cccc([S+](C)[O-])c1)c1cccc(Cl)c1Cl` (stereo not shown) [Beispiel 1.422], the chromatographic logP is 4.12.

As to `COc1ccc(C=NOCC#Cc2cc(C)c(F)c([S+](C)[O-])c2)cn1` (stereo not shown) [Beispiel 5.144], the chromatographic logP is 2.76.

With `COc1nccnc1C=NOCC#Cc1cccc(CC#N)c1` [Beispiel 4.086], the chromatographic logP was found to be 2.4. For `CSc1cccc(C#CCON=C(C)c2cccc(C)n2)c1` [Beispiel 3.091] the value was 4.18. `CCC(=NOCC#Cc1cccc(CC#N)c1)c1ccccc1F` [Beispiel 1.418] yielded a chromatographic logP of 3.72.

The compound `CCC(=NOCC#Cc1cccc([S+](C)[O-])c1)c1cccc(C)n1` (stereo not shown) [Beispiel 3.096] registered a chromatographic logP of 2.21.

In turn, `C[S+]([O-])c1cccc(C#CCON=Cc2ccc(C3CCCC3)nc2)c1` (stereo not shown) [Beispiel 5.196] gave a chromatographic logP of 3.43. For the compound `CC(=NOCC#Cc1cccc(CC#N)c1)c1cccc(C)n1` [Beispiel 3.094], the chromatographic logP came out at 2.96. `CCSc1cc(C#CCON=Cc2ccccc2OC)ccc1OC` [Beispiel 1.398]: the chromatographic logP is 4.45. Compound `COc1cc(F)ccc1C=NOCC#Cc1ccccc1[S+](C)[O-]` (stereo not shown) [Beispiel 1.446] yielded a chromatographic logP of 2.86. As to `COc1cc(F)ccc1C=NOCC#Cc1cccc(SC(C)C)c1` [Beispiel 1.431], the chromatographic logP was found to be 5.26.

Turning to `COc1nccnc1C=NOCC#Cc1cccc(SC)c1` [Beispiel 4.084], the chromatographic logP was 3.34. `CCC(=NOCC#Cc1cccc(OC)c1)c1ccccc1` [Beispiel 1.403] returned a chromatographic logP of 4.45. Next, `CSc1cccc(C#CCON=Cc2cc(C(F)(F)F)c(Cl)cn2)c1` [Beispiel 3.120]: 4.92. In turn, `CSc1ccc(C=NOCC#Cc2cccc(CC#N)c2)cn1` [Beispiel 5.187] gave a chromatographic logP of 3.18.

`CCC(=NOCC#Cc1cccc(SC)c1)c1cccc(C)n1` [Beispiel 3.095]: the chromatographic logP is 4.77. With `COc1cc(F)ccc1C=NOCC#Cc1cc(SC)c(F)c(SC)c1` [Beispiel 1.449], the chromatographic logP was determined as 5.17. For `CC(=NOCC#Cc1cccc(S(C)(=O)=O)c1)c1cccc(C)n1` [Beispiel 3.093] the value was 2.4; for `CCC(=NOCC#Cc1cccc(OC)c1)c1ccc(F)cc1` [Beispiel 1.411], 4.54.

As for `COc1cccc(OC)c1C=NOCC#Cc1cccc(SC)c1` [Beispiel 1.393], the chromatographic logP was determined as 3.77. In turn, `COc1ccccc1C=NOCC#Cc1cc(SC)c(F)c(SC)c1` [Beispiel 1.450] yielded a chromatographic logP of 5.05. With `COc1ccccc1C=NOCC#Cc1cccc(SC(C)C)c1` [Beispiel 1.430], the chromatographic logP was determined as 5.24. For `CCC(=NOCC#Cc1cccc(CC#N)c1)c1cccc(Cl)c1Cl` [Beispiel 1.419], the chromatographic logP is 4.84. As for `C[S+]([O-])c1cccc(C#CCON=Cc2ccc(OCC(F)(F)F)nc2OCC(F)(F)F)c1` (stereo not shown) [Beispiel 5.193], the chromatographic logP was 3.4. On to `COc1nccnc1C=NOCC#Cc1cccc([S+](C)[O-])c1` (stereo not shown) [Beispiel 4.090], for which the chromatographic logP was found to be 1.57.

`Cc1ccc(C#CCON=Cc2cccnc2)cc1[S+](C)[O-]` (stereo not shown) [Beispiel 5.170]: the chromatographic logP was found to be 1.37.
